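Dose response: 5 concentrations. Exposure: 48 h. Format: 96-well plates. Endpoint: linear interpolation; highest concentration if not reached. Abbreviation: GI50, concentration required for 50% inhibition of growth. TGI: concentration producing complete growth inhibition.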
Tests used:
Assay in all cases: DTP human tumour cell line panel, 48 h
786-0 renal = system: 786-0 renal
A498 renal = system: A498 renal
A549 NSCLC = system: A549 NSCLC
ACHN renal = system: ACHN renal
BT-549 breast = system: BT-549 breast
CAKI-1 renal = system: CAKI-1 renal
CCRF-CEM leukemia = system: CCRF-CEM leukemia
COLO 205 colon = system: COLO 205 colon
DU-145 prostate = system: DU-145 prostate
EKVX NSCLC = system: EKVX NSCLC
HCC-2998 colon = system: HCC-2998 colon
HCT-15 colon = system: HCT-15 colon
HL-60(TB) leukemia = system: HL-60(TB) leukemia
HOP-62 NSCLC = system: HOP-62 NSCLC
HOP-92 NSCLC = system: HOP-92 NSCLC
HS 578T breast = system: HS 578T breast
HT29 colon = system: HT29 colon
IGROV1 ovarian = system: IGROV1 ovarian
K-562 leukemia = system: K-562 leukemia
KM12 colon = system: KM12 colon
M14 melanoma = system: M14 melanoma
MALME-3M melanoma = system: MALME-3M melanoma
MCF7 breast = system: MCF7 breast
MDA-MB-231 breast = system: MDA-MB-231 breast
MDA-MB-435 = system: MDA-MB-435
MOLT-4 leukemia = system: MOLT-4 leukemia
NCI-H226 lung = system: NCI-H226 lung
NCI-H23 lung = system: NCI-H23 lung
NCI-H460 lung = system: NCI-H460 lung
NCI-H522 lung = system: NCI-H522 lung
NCI/ADR-RES ovarian = system: NCI/ADR-RES ovarian
OVCAR-4 ovarian = system: OVCAR-4 ovarian
OVCAR-5 ovarian = system: OVCAR-5 ovarian
OVCAR-8 ovarian = system: OVCAR-8 ovarian
PC-3 prostate = system: PC-3 prostate
RPMI-8226 leukemia = system: RPMI-8226 leukemia
RXF 393 renal = system: RXF 393 renal
SF-268 CNS = system: SF-268 CNS
SF-295 CNS = system: SF-295 CNS
SF-539 CNS = system: SF-539 CNS
SK-MEL-2 melanoma = system: SK-MEL-2 melanoma
SK-MEL-28 melanoma = system: SK-MEL-28 melanoma
SK-MEL-5 melanoma = system: SK-MEL-5 melanoma
SK-OV-3 ovarian = system: SK-OV-3 ovarian
SN12C renal = system: SN12C renal
SNB-19 CNS = system: SNB-19 CNS
SNB-75 CNS = system: SNB-75 CNS
SW-620 colon = system: SW-620 colon
T-47D breast = system: T-47D breast
TK-10 renal = system: TK-10 renal
UACC-257 melanoma = system: UACC-257 melanoma
UACC-62 melanoma = system: UACC-62 melanoma
UO-31 renal = system: UO-31 renal

## NCCN1CCN(c2nc(-c3ccccc3)nc3nc(-c4ccccc4)oc23)CC1
786-0 renal
  GI50: 1770 nM
  TGI: 3640 nM
A498 renal
  GI50: 1690 nM
  TGI: 3310 nM
A549 NSCLC
  GI50: 1850 nM
  TGI: 3910 nM
ACHN renal
  GI50: 1810 nM
  TGI: 3290 nM
BT-549 breast
  GI50: 1680 nM
  TGI: 3310 nM
CAKI-1 renal
  GI50: 1640 nM
  TGI: 3170 nM
CCRF-CEM leukemia
  GI50: 919 nM
  TGI: 3290 nM
COLO 205 colon
  GI50: 1930 nM
  TGI: 3920 nM
DU-145 prostate
  GI50: 1920 nM
  TGI: 3450 nM
EKVX NSCLC
  GI50: 1670 nM
  TGI: 3360 nM
HCC-2998 colon
  GI50: 1630 nM
  TGI: 3060 nM
HCT-15 colon
  GI50: 1490 nM
  TGI: 2970 nM
HL-60(TB) leukemia
  GI50: 1860 nM
  TGI: 4480 nM
HOP-62 NSCLC
  GI50: 2030 nM
  TGI: 4550 nM
HOP-92 NSCLC
  GI50: 1350 nM
  TGI: 2870 nM
HS 578T breast
  GI50: 2220 nM
  TGI: 5060 nM
HT29 colon
  GI50: 1970 nM
  TGI: 4000 nM
IGROV1 ovarian
  GI50: 1800 nM
  TGI: 3490 nM
K-562 leukemia
  GI50: 287 nM
  TGI: 1010 nM
KM12 colon
  GI50: 1860 nM
  TGI: 3470 nM
M14 melanoma
  GI50: 2040 nM
  TGI: 3720 nM
MALME-3M melanoma
  GI50: 1750 nM
  TGI: 3390 nM
MCF7 breast
  GI50: 1310 nM
  TGI: 2860 nM
MDA-MB-231 breast
  GI50: 1830 nM
  TGI: 3560 nM
MDA-MB-435
  GI50: 1820 nM
  TGI: 3320 nM
MOLT-4 leukemia
  GI50: 2080 nM
  TGI: 4620 nM
NCI-H226 lung
  GI50: 1970 nM
  TGI: 4130 nM
NCI-H23 lung
  GI50: 1690 nM
  TGI: 3210 nM
NCI-H460 lung
  GI50: 1940 nM
  TGI: 3690 nM
NCI-H522 lung
  GI50: 2160 nM
  TGI: 5050 nM
NCI/ADR-RES ovarian
  GI50: 1900 nM
  TGI: 3970 nM
OVCAR-4 ovarian
  GI50: 2150 nM
  TGI: 4420 nM
OVCAR-5 ovarian
  GI50: 1770 nM
  TGI: 3260 nM
OVCAR-8 ovarian
  GI50: 1980 nM
  TGI: 4460 nM
PC-3 prostate
  GI50: 1590 nM
  TGI: 3060 nM
RPMI-8226 leukemia
  GI50: 1880 nM
  TGI: 4620 nM
RXF 393 renal
  GI50: 1630 nM
  TGI: 3410 nM
SF-268 CNS
  GI50: 1850 nM
  TGI: 3960 nM
SF-295 CNS
  GI50: 1890 nM
  TGI: 3600 nM
SF-539 CNS
  GI50: 1790 nM
  TGI: 3250 nM
SK-MEL-2 melanoma
  GI50: 22300 nM
  TGI: 47700 nM
SK-MEL-28 melanoma
  GI50: 1790 nM
  TGI: 3350 nM
SK-MEL-5 melanoma
  GI50: 1740 nM
  TGI: 3180 nM
SK-OV-3 ovarian
  GI50: 1910 nM
  TGI: 3690 nM
SN12C renal
  GI50: 1800 nM
  TGI: 3500 nM
SNB-19 CNS
  GI50: 1820 nM
  TGI: 3460 nM
SNB-75 CNS
  GI50: 1300 nM
  TGI: 2600 nM
SW-620 colon
  GI50: 1710 nM
  TGI: 3300 nM
T-47D breast
  GI50: 2050 nM
  TGI: 4660 nM
TK-10 renal
  GI50: 1650 nM
  TGI: 3390 nM
UACC-257 melanoma
  GI50: 3340 nM
  TGI: 13400 nM
UACC-62 melanoma
  GI50: 1850 nM
  TGI: 3470 nM
UO-31 renal
  GI50: 1460 nM
  TGI: 3010 nM

Reference: PubChem BioAssay (NCI)
